{"source": "patent US20050031537A1", "about": "“Multifunctional COX-2 inhibitors” (priority 2002, published 2005)", "key": {"[1]": {"tested_on": "cyclin D1", "experiment": "Western blotting for expression of cyclin D1 (test (c))", "assay_type": "cell-based, human", "conditions": "for Test (c) at least 50% downregulation of expression of cyclin D1: positive in 184B5, 184B5/HER cells, 24 h, Western blot", "procedure": "Cyclin D1 is a protein that is important in regulating cell proliferation and is described in Ortega, S., et al, Biochimica et Biophysica Acta 1602, 73-87, (2002), the whole of which is incorporated by reference. […] Effects on expression of cyclin D1 was investigated in 184B5, 184B5/HER, HCA7, HCT116, SKBR3 and BT474 cells. The expression was assessed in cells after treatment with test compound or vehicle using 5×10^4 cells for 24 hours. Western blotting technique was used as follows to assess the expression levels of cyclin D1 in cells treated with the test compound and compared to levels in cells treated with vehicle alone. Cell lysates were prepared by treating cells with lysis buffer as described above. […] The resolved proteins were transferred onto nitrocellulose sheets. The nitrocellulose membrane was then incubated with anti-cyclin D1 antiserum. Secondary antibody to IgG conjugated to horseradish peroxidase was used. The various antisera were purchased from Santa Cruz Biotechnology, Inc., CA. The blots were probed with the Renaissance Western blot detection system according to the manufacturer's instructions (PerkinElmer Life Sciences, Boston, Mass.)."}, "[2]": {"tested_on": "HPV16 oncoproteins E6 and E7", "experiment": "Western and Northern blotting for HPV16 oncoproteins E6 and E7 (test (d))", "assay_type": "cell-based, human papillomavirus", "conditions": "for Test (d) at least 50% downregulation of expression of HPV16 oncoproteins E6 and E7: positive in CaSki and SiHa cells", "procedure": "We turn now to the criterion (d), that is at least 50% downregulation of expression of HPV16 oncoproteins E6 and E7.\nProtein E6 and E7 which are expressed by HPV16 are believed to play a major role in carcinogenesis.\nWestern blotting and Northern blotting techniques were used to evaluate the expression of HPV E6 and E7 proteins. The cell lines used for the study were CaSKi and SiHa. The cells were treated with the test compound and cell lysate was obtained as described above and subjected to Western blotting analysis. The Western blotting analysis was performed as described above except anti-HPV 16 E7 antibody was used to probe the blot. The antibody was obtained from Santa Cruz Biotechnology, Inc. CA. For Northern blotting, total cellular RNA was isolated from cell monolayers using an RNA isolation kit from QIAGEN Inc. after treatment with the test compound. 10 μg of total cellular RNA per lane were electrophoresed in a formaldehyde-containing 1.2% agarose gel and transferred to nylon-supported membranes. After baking, membranes were prehybridized overnight in a solution containing 50% formamide, 5×sodium chloride-sodium phosphate-EDTA buffer (SSPE), 5×Denhardt's solution, 0.1% SDS and 100 μg/ml single-stranded salmon sperm DNA and then hybridized for 12 h at 42° C. with radiolabeled cDNA probes for human HPV16 E6 or E7 cDNAs and 18S rRNA. E6 and E7 (as described in Woodworth, C. D., Cancer Res. 16, 4397-4402 (2000)) and 18S rRNA probes were labeled with [^32P]-CTP by random priming. After hybridization, membranes were washed twice for 20 min at room temperature in 2×SSPE-0.1% SDS, twice for 20 min in the same solution at 55° C., and twice for 20 min in 0.1×SSPE-0.1% SDS at 55° C. Washed membranes were then subjected to autoradiography."}, "[3]": {"tested_on": "PTEN", "experiment": "Western and Northern blotting for expression of PTEN (test (e))", "assay_type": "cell-based, human", "conditions": "for Test (e) at least 50% increase in expression of PTEN: positive in 184B5, 184B5/HER, HCA7, HCT116, SKBR3 and BT474 cells", "procedure": "We turn now to criterion (e), i.e., at least 50% increase in expression of PTEN.\nPTEN is a tumor suppressor that inhibits cell proliferation and induces programmed cell death. PTEN (also know as MMAC-1 or TEP-1) is described in Yamada, K. M., et al, Journal of Cell Science 114, 2375-2382, the whole of which is incorporated herein by reference.\n(§1) Western blotting and Northern blotting techniques were used to evaluate the expression of PTEN. The expression of PTEN was evaluated in HCA7, HCT116, SKBR3, 184B5/HER, 184B5 and BT474 cells. 5×10^6cells were used to treat either vehicle alone or the test compound. The Western blotting analysis was performed as described above except anti-PTEN antibody was used to probe the blot. The antibody was obtained from Santa Cruz Biotechnology, Inc. CA. Northern blotting for PTEN was performed as described above and cDNA for PTEN as described in Tamura, M., et al, Science 5; 280 (5369):1614-1617 (1998), was used as a probe."}, "[4]": {"tested_on": "Nrf-2", "experiment": "Western and Northern blotting for expression of Nrf-2 (test (g))", "assay_type": "cell-based, human", "conditions": "positive in 184B5, 184B5/HER, HCA7, HCT116, SKBR3, BT474 and CaSki cells", "procedure": "We turn now to criterion (g), i.e. at least 50% increase in expression of Nrf-2. […] 13, 2001).\nas §1, with “Nrf-2.” for “PTEN.”, “Nrf-2” for “PTEN”, “SKBR3, CaSki,” for “SKBR3,”, “anti-Nrf-2” for “anti-PTEN”, “Gong, P.,” for “Tamura, M.,”, “al., J.Biol Chem 20; 276:27018-27025 (2001)” for “al, Science 5; 280 (5369):1614-1617 (1998),”"}, "[5]": {"conditions": "184B5 cells, 24 hours, Western blotting"}}, "data": [{"compound": "Cc1ccc(-c2cc(C(F)(F)F)nn2-c2ccc(S(N)(=O)=O)cc2)cc1", "note": "[Celecoxib]", "values": [{"measurement": "Test (c) at least 50% downregulation of expression of cyclin D1", "setting": "[1]", "value": "+ (A plus sign in the table indicates a positive result, that is meeting the test for each cell line as indicated above as providing a positive result)"}, {"measurement": "Test (d) at least 50% downregulation of expression of HPV16 oncoproteins E6 and E7", "setting": "[2]", "value": "+ (A plus sign in the table indicates a positive result, that is meeting the test for each cell line as indicated above as providing a positive result)"}, {"measurement": "Test (e) at least 50% increase in expression of PTEN", "setting": "[3]", "value": "+ (A plus sign in the table indicates a positive result, that is meeting the test for each cell line as indicated above as providing a positive result)"}, {"measurement": "Test (g) at least 50% increase in expression of Nrf-2", "setting": "[4]", "value": "+ (A plus sign in the table indicates a positive result, that is meeting the test for each cell line as indicated above as providing a positive result)"}]}, {"compound": "CCCCCCCOC(=O)Cc1c(C)n(C(=O)c2ccc(Cl)cc2)c2ccc(OC)cc12", "note": "[Indomethacin Analog 1, indomethacin heptyl ester]", "values": [{"measurement": "Test (d) at least 50% downregulation of expression of HPV16 oncoproteins E6 and E7", "setting": "[2]", "value": "+ (A plus sign in the table indicates a positive result, that is meeting the test for each cell line as indicated above as providing a positive result)"}, {"measurement": "Test (e) at least 50% increase in expression of PTEN", "setting": "[3]", "value": "+ (A plus sign in the table indicates a positive result, that is meeting the test for each cell line as indicated above as providing a positive result)"}, {"measurement": "Test (g) at least 50% increase in expression of Nrf-2", "setting": "[4]", "value": "+ (A plus sign in the table indicates a positive result, that is meeting the test for each cell line as indicated above as providing a positive result)"}]}, {"compound": "COc1ccc(OC(=O)Cc2c(C)n(C(=O)c3ccc(Cl)cc3)c3ccc(OC)cc23)cc1", "note": "[Indomethacin Analog 3, 1-(p-chlorobenzoyl)-5-methoxy-2-methyl-1H-indole-3-acetic acid, 4-methoxyphenyl ester]", "values": [{"measurement": "Test (g) at least 50% increase in expression of Nrf-2", "setting": "[4]", "value": "+ (A plus sign in the table indicates a positive result, that is meeting the test for each cell line as indicated above as providing a positive result)"}]}, {"compound": "NS(=O)(=O)c1ccc(-n2nc(C(F)(F)F)cc2-c2ccc(Cl)cc2)cc1", "note": "[SC-236, 4-[5-(4-chlorophenyl)-3-(trifluoromethyl)-1H-pyrazol-1-yl]benzenesulfonamide]", "values": [{"measurement": "decrease in level of cyclin D1", "setting": "[1]; [5]", "value": "more than 50%"}, {"measurement": "Test (c) at least 50% downregulation of expression of cyclin D1", "setting": "[1]", "value": "+ (A plus sign in the table indicates a positive result, that is meeting the test for each cell line as indicated above as providing a positive result)"}, {"measurement": "decrease in amounts of E6 mRNA", "setting": "[2]; CaSki cells, 24 hours, 0-5.0 μM, Northern blotting", "value": "greater than 50%"}, {"measurement": "inhibition of HPV16 E7 protein", "setting": "[2]; CaSki cells, 24 hours, 0-5.0 μM, high concentration, Western blot", "value": "greater than 50%"}, {"measurement": "Test (d) at least 50% downregulation of expression of HPV16 oncoproteins E6 and E7", "setting": "[2]", "value": "+ (A plus sign in the table indicates a positive result, that is meeting the test for each cell line as indicated above as providing a positive result)"}, {"measurement": "increase in amounts of PTEN", "setting": "[3]; [5]", "value": "> 100", "unit": "%"}, {"measurement": "Test (e) at least 50% increase in expression of PTEN", "setting": "[3]", "value": "+ (A plus sign in the table indicates a positive result, that is meeting the test for each cell line as indicated above as providing a positive result)"}, {"measurement": "Test (g) at least 50% increase in expression of Nrf-2", "setting": "[4]", "value": "+ (A plus sign in the table indicates a positive result, that is meeting the test for each cell line as indicated above as providing a positive result)"}]}, {"compound": "CS(=O)(=O)c1ccc(-n2nc(C(F)(F)F)cc2-c2ccc(F)cc2)cc1", "note": "[SC-58125, 4-[5-(4-fluorophenyl)-3-(trifluoromethyl)-1H-pyrazol-1-yl]benzenemethylsulfone]", "values": [{"measurement": "Test (c) at least 50% downregulation of expression of cyclin D1", "setting": "[1]", "value": "+ (A plus sign in the table indicates a positive result, that is meeting the test for each cell line as indicated above as providing a positive result)"}, {"measurement": "Test (d) at least 50% downregulation of expression of HPV16 oncoproteins E6 and E7", "setting": "[2]", "value": "+ (A plus sign in the table indicates a positive result, that is meeting the test for each cell line as indicated above as providing a positive result)"}, {"measurement": "Test (e) at least 50% increase in expression of PTEN", "setting": "[3]", "value": "+ (A plus sign in the table indicates a positive result, that is meeting the test for each cell line as indicated above as providing a positive result)"}, {"measurement": "Test (g) at least 50% increase in expression of Nrf-2", "setting": "[4]", "value": "+ (A plus sign in the table indicates a positive result, that is meeting the test for each cell line as indicated above as providing a positive result)"}]}]}
